Experimental data taken from patent US6521751B1, “Recombinant nucleic acid sequences and methods for determining both genotoxicity and mutagenicity of a sample and the kinetics of the genotoxicity” (Vlaamse Instelling voor Technologisch Onderzoek (VITO), priority 1998, dated 2003).
“And” between values parts separate entries of the source, which are not always exact repeats. Equal values may be shown once. Read-outs that look alike come from different tables or passages of the source.

Experiments:
TA104 (pMOL890) = conditions: M9 medium saturated with 0.1% of the PAH, degrading strain, samples every 3 days
S. typhimurium = conditions: cited from earlier work
E. coli (sfiA-lacZ) = conditions: cited from earlier work; for MINIMAL DETECTED CONCENTRATION (MDC): literature values
[1] = test system: TA 98 and TA104 strains containing pMOL1067 or pMOL1068
[2] = test system: S. typhimurium TA104 containing pMOL890; conditions: TA104 pMOL890
[3] = test system: S. typhimurium TA98 containing pMOL1067; conditions: TA98 pMOL1067
[4] = test system: S. typhimurium TA104 containing pMOL1066; conditions: TA104 pMOL1066
[5] = test system: TA98 and TA104 strains containing pMOL890, pMOL1067 or pMOL1068; assay: Test with the TA98 and TA104 strains containing pMOL890, pMOL1067 or pMOL1068
[6] = test system: S. typhimurium TA98 containing pMOL890; conditions: TA98 pMOL890
[7] = test system: S. typhimurium TA104 containing pMOL1067; conditions: TA104 pMOL1067
[8] = test system: S. typhimurium TA98 containing pMOL1068; conditions: TA98 pMOL1068
[9] = test system: novel biosensor systems in E. coli and in S. typhimurium strains; assay: Subject SOS promoter-lux systems (general statements); conditions: agents known to give false negative results in the SOS chromotest and the Ames test
[10] = test system: S. typhimurium TA104 containing pMOL1068; conditions: TA104 pMOL1068
[11] = test system: S. typhimurium TA104 containing pMOL1069; conditions: TA104 pMOL1069
[12] = test system: TA98 and TA104 containing pMOL1067; assay: Induction kinetics with pMOL1067; format: cell-based, S. typhimurium
Experimental: The reaction of the different constructs when more than one genotoxic product is present in the test sample. was examined. This is an important aspect, since environmental samples often contain more than one genotoxic pollutant. Also in this regard many pharmaceutical products that have to be tested for genotoxicity can be a combination of different active genotoxic substances (e.g. anticancer or anti AIDS drugs). The experiments were performed with TA98 and TA104 containing either pMOL1067 or pMOL890. These two constructs were chosen since they show similar induction kinetics and the best signal/noise ratio's in S. typhimurium (see FIG. 7 and FIG. 8). As test products, several combinations of MMS and novobiocine were taken. These products were used since they were found by us to have different induction kinetics (e.g., with pMOL1067 MMS gives a maximum after 2 hours, while the maximal signal/noise ratio with novobiocine is observed after 4 hours).

[13] = test system: S. typhimurium TA1538* containing pMOL890
[14] = test system: S. typhimurium TA104* containing pMOL890
[15] = test system: S. typhimurium TA98* containing pMOL890
[16] = test system: S. typhimurium TA100* containing pMOL890
[17] = test system: S. typhimurium TA1535* containing pMOL890
[18] = TA 98 and TA104 strains containing pMOL1067 or pMOL1068

## c1ccc2c(c1)-c1cccc3cccc-2c13 [Fluoranthene]
TA104 (pMOL890)
  genotoxicity during bacterial degradation of the PAH: an increase of genotoxicity
S. typhimurium
  AMES (result): pos
E. coli (sfiA-lacZ)
  SOS (result): pos
[1]
  OUTCOME (genotoxicity, final outcome): pos

## OO [H2O2, hydrogen peroxide]
[2]
  MINIMAL DETECTED CONCENTRATION (MDC): 3.8 nmol/assay
[3]
  MINIMAL DETECTED CONCENTRATION (MDC): 1.5 nmol/assay
S. typhimurium
  AMES (result): neg
  MINIMAL DETECTED CONCENTRATION (MDC): neg
  result in the Ames test: False-negative
[4]
  MINIMAL DETECTED CONCENTRATION (MDC): 11.8 nmol/assay
E. coli (sfiA-lacZ); SOS chromotest, Table 3
  SOS (result): pos
E. coli (sfiA-lacZ); SOS chromotest
  MINIMAL DETECTED CONCENTRATION (MDC): 23 nmol/assay
[5]
  result in the test (genotoxicity): positive
[6]
  MINIMAL DETECTED CONCENTRATION (MDC): 8.5 nmol/assay
[7]
  MINIMAL DETECTED CONCENTRATION (MDC): 11.8 nmol/assay
[8]
  MINIMAL DETECTED CONCENTRATION (MDC): 1.5 nmol/assay
[9]
  result in the novel systems according to the invention: positive
[10]
  MINIMAL DETECTED CONCENTRATION (MDC): 11.8 nmol/assay
[11]
  MINIMAL DETECTED CONCENTRATION (MDC): 5.9 nmol/assay
[1]; [18]
  OUTCOME (genotoxicity, final outcome): pos

## COS(C)(=O)=O [MMS, Methylmethanesulphonate]
[2]
  MINIMAL DETECTED CONCENTRATION (MDC): 7.3 nmol/assay
[3]
  MINIMAL DETECTED CONCENTRATION (MDC): 7.3 nmol/assay
[12]
  time of maximal signal/noise ratio: 2 h
S. typhimurium
  AMES (result): pos
  MINIMAL DETECTED CONCENTRATION (MDC): 60 nmol/assay
S. typhimurium TA100; MMS 0.1 μl
  Number of His^+ revertants: 344 and 392
S. typhimurium TA100; MMS 0.2 μl
  Number of His^+ revertants: 604 and 560
S. typhimurium TA100; MMS 1 μl
  Number of His^+ revertants: 1120 and 1282
S. typhimurium TA1538
  Conclusion (Ames test): −
S. typhimurium TA98
  Conclusion (Ames test): −
[4]
  MINIMAL DETECTED CONCENTRATION (MDC): 7.3 nmol/assay
[13]; MMS 0.1 μl
  Number of His^+ revertants: 36 and 28
[13]; MMS 0.2 μl
  Number of His^+ revertants: 28 and 27
[13]; MMS 1 μl
  Number of His^+ revertants: 27 and 29
E. coli (sfiA-lacZ); SOS chromotest, Table 3
  SOS (result): pos
E. coli (sfiA-lacZ); SOS chromotest
  MINIMAL DETECTED CONCENTRATION (MDC): 20 nmol/assay
[14]; MMS 0.1 μl
  Number of His^+ revertants: 224 and 218
[14]; MMS 0.2 μl
  Number of His^+ revertants: 428 and 325
[14]; MMS 1 μl
  Number of His^+ revertants: 672 and 724
S. typhimurium TA1535; MMS 0.1 μl
  Number of His^+ revertants: 27 and 18
S. typhimurium TA1535; MMS 0.2 μl
  Number of His^+ revertants: 23 and 24
S. typhimurium TA1535; MMS 1 μl
  Number of His^+ revertants: 27 and 38
[6]
  MINIMAL DETECTED CONCENTRATION (MDC): 7.3 nmol/assay
[7]
  MINIMAL DETECTED CONCENTRATION (MDC): 7.3 nmol/assay
[8]
  MINIMAL DETECTED CONCENTRATION (MDC): 7.3 nmol/assay
[10]
  MINIMAL DETECTED CONCENTRATION (MDC): 7.3 nmol/assay
[15]; MMS 0.1 μl
  Number of His^+ revertants: 25 and 27
[15]; MMS 0.2 μl
  Number of His^+ revertants: 26 and 28
[15]; MMS 1 μl
  Number of His^+ revertants: 22 and 27
S. typhimurium TA104
  Conclusion (Ames test): +
[16]; MMS 0.1 μl
  Number of His^+ revertants: 160 and 152
[16]; MMS 0.2 μl
  Number of His^+ revertants: 242 and 314
[16]; MMS 1 μl
  Number of His^+ revertants: 536 and 528
[11]
  MINIMAL DETECTED CONCENTRATION (MDC): 7.3 nmol/assay
[17]; MMS 0.1 μl
  Number of His^+ revertants: 32
[17]; MMS 0.2 μl
  Number of His^+ revertants: 24
[17]; MMS 1 μl
  Number of His^+ revertants: 29 and 26
[1]; [18]
  OUTCOME (genotoxicity, final outcome): pos

## c1ccc2c(c1)ccc1ccccc12 [Phenanthrene]
TA104 (pMOL890)
  genotoxicity during bacterial degradation of the PAH: an increase followed by a decrease in genotoxicity
S. typhimurium; Ames test, Table 3
  AMES (result): neg
S. typhimurium; text b127
  result in the Ames test: False-negative
E. coli (sfiA-lacZ); SOS chromotest, Table 3
  SOS (result): pos
[5]
  result in the test (genotoxicity): positive
[9]
  result in the novel systems according to the invention: positive
[1]; [18]
  OUTCOME (genotoxicity, final outcome): pos

## c1ccc2c(c1)Cc1ccccc1-2 [fluorene]
TA104 (pMOL890)
  genotoxicity during bacterial degradation of the PAH: no significant increase in genotoxicity

## CO[C@@H]1[C@@H](OC(N)=O)[C@@H](O)[C@H](Oc2ccc3c(O)c(NC(=O)c4ccc(O)c(CC=C(C)C)c4)c(=O)oc3c2C)OC1(C)C [novobiocine]
[2]
  MINIMAL DETECTED CONCENTRATION (MDC): 1.26 nmol/assay
[3]
  MINIMAL DETECTED CONCENTRATION (MDC): 0.079 nmol/assay
[12]
  time of maximal signal/noise ratio: 4 h
S. typhimurium; AMES, literature values, pos/neg where MDC could not be calculated
  MINIMAL DETECTED CONCENTRATION (MDC): pos
S. typhimurium; Ames test, Table 3
  AMES (result): pos
[4]
  MINIMAL DETECTED CONCENTRATION (MDC): 1.26 nmol/assay
E. coli (sfiA-lacZ); SOS chromotest, Table 3
  SOS (result): neg
E. coli (sfiA-lacZ); SOS chromotest
  MINIMAL DETECTED CONCENTRATION (MDC): neg
E. coli (sfiA-lacZ); text b126
  result in the SOS chromotest: negative
[5]
  result in the test (genotoxicity): positive
[6]
  MINIMAL DETECTED CONCENTRATION (MDC): 0.57 nmol/assay
[7]
  MINIMAL DETECTED CONCENTRATION (MDC): 0.32 nmol/assay
[8]
  MINIMAL DETECTED CONCENTRATION (MDC): 0.63 nmol/assay
[9]
  result in the novel systems according to the invention: positive
[10]
  MINIMAL DETECTED CONCENTRATION (MDC): 1.26 nmol/assay
[11]
  MINIMAL DETECTED CONCENTRATION (MDC): 0.32 nmol/assay
[1]; [18]
  OUTCOME (genotoxicity, final outcome): pos
